Measured values as given in patent US9012431B2, “Boron-containing small molecules as anti-inflammatory agents” (Anacor Pharmaceuticals, Inc., priority 2008, dated 2015).

Experiments:
TNF-α = test: Cytokine assay, TNF-α release from PBMC; assay type: cell-based; conditions: Homo sapiens, PBMC, 24 h, 1 μg/mL LPS, supernatant at 24 hours
How it was run: (§1)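 Cryopreserved human PBMC were thawed and resuspended in RPMI 1640 with 10% FBS. Test compounds, diluted from 10 mM DMSO stocks, were applied in triplicate at 10, 1, 0.1 and 0.01 μM, and cytokine release was measured.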

IL-2 = test: Cytokine assay, IL-2 release from PBMC; assay type: cell-based; conditions: human PBMC, 20 ug/mL PHA, supernatant at 24 hours
How it was run: as §1

IFN-γ = test: Cytokine assay, IFN-γ release from PBMC; assay type: cell-based; conditions: human PBMC, 20 ug/mL PHA, supernatant at 24 hours
How it was run: as §1

IL-5 = test: Cytokine assay, IL-5 release from PBMC; assay type: cell-based; conditions: human PBMC, 20 ug/mL PHA, supernatant at 48 hours
How it was run: as §1

IL-10 = test: Cytokine assay, IL-10 release from PBMC; assay type: cell-based; conditions: human PBMC, 20 ug/mL PHA, supernatant at 48 hours
How it was run: as §1

[1] = test system: T1, PDE4 partially purified from human U-937 myeloid leukemia cells; test: PDE4 Assay (enzyme from U-937 cells, [3H]cAMP); assay type: biochemical; conditions: PDE4 from U-937 cells, Tris buffer pH 7.5, 20 minutes at 25° C.
T1 construct: PDE4 partially purified from human U-937 myeloid leukemia cells was used

[2] = test system: CD-1 (Crl.) derived male mice; test: Phorbol Ester Induced Mouse Ear Edema Model; assay type: in vivo; conditions: topical, 6 h; for inhibition in vivo at 0.1 mg: 0.1 mg/ear × 2 topical; for inhibition in vivo at 0.2 mg: 0.2 mg/ear × 2 topical; for inhibition in vivo at 1 mg: 1 mg/ear × 2 topical; for inhibition in vivo at 3 mg: 3 mg/ear × 2 topical
Method: 1. In Vivo Anti-Inflammation Activity in Phorbol Ester Induced Mouse Ear Edema Model
[…] Dexamethasone (1 mg/ear×2) used as the positive control was administered topically to test animals using the same application schedule. Ear swelling was then measured by a Dyer model micrometer gauge at 6 hours after PMA application as an index of inflammation. Percent inhibition was calculated according to the formula: [(Ic−It)/Ic]×100%, where Ic and It refer to increase of ear thickness (mm) in control and treated mice, respectively.

BALB/c male mice = test: Oxazolone Induced Mouse Ear Edema Model; assay type: in vivo; conditions: for inhibition in vivo at 0.2 mg: 0.2 mg/ear × 2 topical; for inhibition in vivo at 1 mg: 1 mg/ear × 2 topical
Method: 2. In Vivo Anti-Inflammation Activity in Oxazolone Induced Mouse Ear Edema Model
Groups of 5 BALB/c male mice weighing 23±2 g were used. The preshaved abdomens of test animals were sensitized by application of 100 μl, of 1.5% oxazolone solution dissolved in acetone. Seven days after the initial sensitization, test substances, as well as vehicle (acetone:ethanol/1:1, 20 μL/ear) were each administered topically to the anterior and posterior surfaces of the right ear 30 minutes before, and 15 minutes after, challenge by a second application of oxazolone (1% in acetone, […]) via topical route. As a positive control, indomethacin (0.3 mg/ear×2) was administered topically using the same treatment regime as for the test compounds. Twenty-four hours after the second application of oxazolone, the ear thickness of each mouse was measured with a Dyer model micrometer gauge. A 30 percent or more inhibition in ear swelling relative to the vehicle control was considered significant and indicated possible anti-inflammatory activity.

[3] = Acetone:Ethanol/1:1, ear swelling 6 hours after PMA
[4] = Acetone:Ethanol/1:1, ear thickness 24 hours after second oxazolone application
[5] = […] × 2 topical, 95% Ethanol, ear swelling 6 hours after PMA
[6] = 95% Ethanol, ear swelling 6 hours after PMA

SMILES | melting point | IC50 (TNF-α) | IC50 (IL-2) | IC50 (IFN-γ) | IC50 (IL-5) | IC50 (IL-10) | IC50 [1] | inhibition in vivo at 1 mg [2, 3] | inhibition in vivo at 1 mg (BALB/c male mice; [4]) | further results
N#Cc1ccc(Oc2ccc(B(O)O)cc2)cc1 | 194 to 198 °C | – | – | – | – | – | – | – | – | –
CCOC(=O)c1ccc(Oc2ccc3c(c2)COB3O)nc1 [D60, Ethyl 6-(1-hydroxy-1,3-dihydrobenzo[c][1,2]oxaborol-5-yloxy)nicotinate] | 110 to 113 °C | < 1 µM | < 1 µM | < 1 µM | < 1 µM | < 1 µM | < 1 µM | 30 to 60% | < 20% | inhibition in vivo at 0.1 mg [2, 3]: < 30%; inhibition in vivo at 0.2 mg [2, 3]: < 30%; inhibition in vivo at 0.1 mg (BALB/c male mice; 0.1 mg/ear × 2 topical, Acetone:Ethanol/1:1, ear thickness 24 hours after second oxazolone application): < 20%; inhibition in vivo at 0.2 mg (BALB/c male mice; [4]): < 20%
CCOC(=O)c1ccc(Oc2ccc3c(c2)COB3O)cc1OC [D35, 4-(1-Hydroxy-1,3-dihydro-benzo[c][1,2]oxaborol-5-yloxy)-2-methoxy-benzoic acid ethyl ester] | 64.9 to 65.2 °C | < 1 µM | < 1 µM | < 1 µM | – | – | < 1 µM | – | – | –
N#Cc1ccc(Oc2ccc3c(c2)COB3O)nc1N1CCCC1 [D97, 6-(1-Hydroxy-1,3-dihydro-benzo[c][1,2]oxaborol-5-yloxy)-2-pyrrolidin-1-yl-nicotinonitrile] | – | < 1 µM | < 1 µM | < 1 µM | < 1 µM | < 1 µM | < 1 µM | – | – | inhibition in vivo at 0.19 mg ([2]; 0.19 mg/ear × 2 topical, 95% Ethanol, ear swelling 6 hours after PMA): < 30%; inhibition in vivo at 0.056 mg [2, 5]: < 30%; inhibition in vivo at 0.56 mg [2, 5]: 30 to 60%; inhibition in vivo at 0.56 mg (BALB/c male mice; 0.56 mg/ear × 2 topical, 95% Ethanol, ear thickness 24 hours after second oxazolone application): < 20%
N#Cc1ccc(Oc2ccc3c(c2)COB3O)cc1OC1CCCC1 [D37, 2-Cyclopentyloxy-4-(1-hydroxy-1,3-dihydro-benzo[c][1,2]oxaborol-5-yloxy)-benzonitrile] | – | < 1 µM | < 1 µM | < 1 µM | < 1 µM | < 1 µM | < 1 µM | 60 to 90% | < 20% | inhibition in vivo at 3 mg [2, 6]: 60 to 90%
COC(=O)c1ccc(Oc2ccc3c(c2)COB3O)nc1C(=O)OC [D44, 6-(1-Hydroxy-1,3-dihydro-benzo[c][1,2]oxaborol-5-yloxy)-pyridine-2,3-dicarboxylic acid dimethyl ester] | 67.5 to 69.2 °C | < 1 µM | < 1 µM | < 1 µM | – | – | < 1 µM | – | – | –
N#Cc1ccc(Oc2ccc3c(c2)COB3O)nc1OCCO [D99, 6-(1-Hydroxy-1,3-dihydro-benzo[c][1,2]oxaborol-5-yloxy)-2-(2-hydroxy-ethoxy)-nicotinonitrile] | – | < 1 µM | < 1 µM | < 1 µM | < 1 µM | < 1 µM | < 1 µM | – | < 20% | inhibition in vivo at 0.02 mg ([2]; 0.02 mg/ear × 2 topical, 95% Ethanol, ear swelling 6 hours after PMA): < 30%; inhibition in vivo at 0.067 mg ([2]; 0.067 mg/ear × 2 topical, 95% Ethanol, ear swelling 6 hours after PMA): < 30%; inhibition in vivo at 0.2 mg [2, 6]: < 30%; inhibition in vivo at 3 mg [2, 6]: 60 to 90%; inhibition in vivo at 0.02 mg (BALB/c male mice; 0.02 mg/ear × 2 topical, 95% Ethanol, ear thickness 24 hours after second oxazolone application): < 20%
COC(=O)c1cc(Oc2ccc3c(c2)COB3O)ccc1C(N)=O [D7, 5-(4-Carbamoyl-3-methoxycarbonylphenoxy)-1,3-dihydro-1-hydroxy-2,1-benzoxaborole] | – | < 1 µM | < 1 µM | < 1 µM | < 1 µM | < 1 µM | < 1 µM | – | – | inhibition in vivo at 1 mg/kg ([2]; 1 mg/kg × 2 topical, Acetone:Ethanol/1:1, ear swelling 6 hours after PMA): < 30%; inhibition in vivo at 1 mg/kg (BALB/c male mice; 1 mg/kg × 2 topical, Acetone:Ethanol/1:1, ear thickness 24 hours after second oxazolone application): < 20%
COC(=O)c1cc(Oc2ccc3c(c2)COB3O)ccc1C#N [D6, 5-(4-Cyano-3-methoxycarbonylphenoxy)-1,3-dihydro-1-hydroxy-2,1-benzoxaborole] | – | < 1 µM | < 1 µM | < 1 µM | 4 to 10 µM | 4 to 10 µM | < 1 µM | 30 to 60% | < 20% | inhibition in vivo at 0.2 mg [2, 3]: < 30%; inhibition in vivo at 0.2 mg (BALB/c male mice; [4]): < 20%
COc1cc(Oc2ccc3c(c2)COB3O)ccc1C#N [D12, 5-(4-Cyano-3-methoxyphenoxy)-1,3-dihydro-1-hydroxy-2,1-benzoxaborole] | – | < 1 µM | < 1 µM | < 1 µM | 1 to 4 µM | < 1 µM | < 1 µM | 30 to 60% | 30 to 40% | inhibition in vivo at 0.2 mg [2, 3]: < 30%; inhibition in vivo at 0.2 mg (BALB/c male mice; [4]): < 20%
COc1cc(Oc2ccc3c(c2)COB3O)ccc1C(=O)O [D36, 4-(1-Hydroxy-1,3-dihydro-benzo[c][1,2]oxaborol-5-yloxy)-2-methoxy-benzoic acid] | 109.6 to 110.1 °C | > 10 µM | > 10 µM | > 10 µM | – | – | – | – | – | –
CC(C)OC(=O)c1ccc(Oc2ccc3c(c2)COB3O)nc1 [D67, Isopropyl 6-(1-hydroxy-1,3-dihydrobenzo[c][1,2]oxaborol-5-yloxy)nicotinate] | – | < 1 µM | < 1 µM | < 1 µM | < 1 µM | < 1 µM | < 1 µM | 60 to 90% | < 20% | –
COc1nc(Oc2ccc3c(c2)COB3O)ccc1C#N [D46, 6-(1-hydroxy-1,3-dihydrobenzo[c][1,2]oxaborol-5-yloxy)-2-methoxynicotinonitrile] | – | < 1 µM | < 1 µM | < 1 µM | < 1 µM | < 1 µM | < 1 µM | 60 to 90% | < 20% | inhibition in vivo at 0.05 mg ([2]; 0.05 mg/ear × 2 topical, 95% Ethanol, ear swelling 6 hours after PMA): < 30%; inhibition in vivo at 0.1 mg [2, 3]: < 30%; inhibition in vivo at 0.17 mg ([2]; 0.17 mg/ear × 2 topical, 95% Ethanol, ear swelling 6 hours after PMA): < 30%; inhibition in vivo at 0.2 mg [2, 3]: < 30%; inhibition in vivo at 0.5 mg ([2]; 0.5 mg/ear × 2 topical, 95% Ethanol, ear swelling 6 hours after PMA): < 30%; inhibition in vivo at 3 mg [2, 6]: 60 to 90%
CCOC(=O)c1nc(Oc2ccc3c(c2)COB3O)ccc1C#N [D45, 3-Cyano-6-(1-hydroxy-1,3-dihydro-benzo[c][1,2]oxaborol-5-yloxy)-pyridine-2-carboxylic acid ethyl ester] | 204 to 206 °C | < 1 µM | < 1 µM | < 1 µM | – | – | < 1 µM | – | – | –
N#Cc1ccc(Oc2ccc3c(c2)COB3O)cc1C(F)(F)F [D5, 5-(4-Cyano-3-trifluoromethylphenoxy)-1,3-dihydro-1-hydroxy-2,1-benzoxaborole] | – | < 1 µM | 1 to 4 µM | < 1 µM | < 1 µM | > 10 µM | < 1 µM | 30 to 60% | 30 to 40% | –
